Test results reported in patent US10639251B2, “Method for inhibiting or masking fishy odours” (Symrise AG, priority 2015, dated 2020).

What was measured:
hTAAR5 = target: T1, hTAAR5 (Homo sapiens, UniProt O14804); conditions: agonist; cited from earlier work
T1 construct: expressed in transfected cells; host or cells: HANA3A cells
T1 sequence (O14804 1-337): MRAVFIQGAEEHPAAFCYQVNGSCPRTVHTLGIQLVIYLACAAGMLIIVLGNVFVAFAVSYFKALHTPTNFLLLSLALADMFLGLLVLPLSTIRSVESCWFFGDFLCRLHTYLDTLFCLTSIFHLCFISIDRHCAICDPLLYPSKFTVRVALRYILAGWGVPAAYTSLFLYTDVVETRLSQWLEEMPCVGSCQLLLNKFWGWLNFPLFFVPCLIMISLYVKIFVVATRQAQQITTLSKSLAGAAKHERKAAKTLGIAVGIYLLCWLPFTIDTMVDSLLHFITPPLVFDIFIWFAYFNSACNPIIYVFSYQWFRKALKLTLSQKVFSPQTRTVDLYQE

panelists = experiment: Olfactory detection threshold of TMA, 3-alternative forced-choice, ISO 13301; type: in vivo, human; conditions: buffered aqueous solution pH 9
Protocol: In addition, olfactory detection thresholds were assessed in aqueous solutions using a best estimate threshold approach as described in ISO 13301. In brief, samples containing different concentrations of analyte were presented in ascending order in a 3-alternative forced-choice design. Each concentration set consisted of three samples with one deviating sample containing a defined amount of trimethylamine. Samples were presented in amber vials (30 ml) coded with three digits and filled with 10 ml of solution, and panelists were required to designate the sample that differed from the others.
Thresholds of TMA were measured in buffered aqueous solution i) without additive ii) with 1% (m/m) Timberol® and iii) with 0.1% Mugetanol (isointense to 1% Timberol®). These experiments were performed separately on different days with the same panelists. In the case of testing in the presence of fragrance components (Timberol® or Mugetanol), all three samples of a given concentration set contained the same amount of fragrance components and differed only in the presence/absence of TMA. In each session, a total of 10 concentration sets ranging from […] to 1.00×10^−5% (m/m) TMA were evaluated. The concentration doubled in each step.
The aqueous solutions were buffered with TRIS (50 mM), and the pH was adjusted to 9 to have approximately 13% of the TMA in a deprotonated and thus volatile form. Furthermore, an odorless emulsifier was added to a final concentration of 3% (m/m) to dissolve Timberol®.
In a second step, the influence of Timberol® on the perception of TMA was investigated using a psychophysical approach. Therefore the detection thresholds of TMA alone and in the presence of suprathreshold concentrations of Timberol® were tested. Threshold measurements were performed in a 3-alternative forced-choice design according to ISO 13301. A total of 10 concentrations (binary dilution steps) ranging from […] to 1.00×10^−5% (m/m) TMA were examined.

humans = conditions: in vivo; cited from earlier work
hOR51E1 = target: T2, hOR51E1 (Homo sapiens, UniProt Q8TCB6); experiment: Cre-luciferase reporter gene assay, concentration-response curve of nonanoic acid on hOR51E1 (Dual-Glo Luciferase, transfected HANA3A cells); type: cell-based; design: expressed in transfected cells; host or cells: HANA3A; conditions: agonist alone; human olfactory receptor hOR51E1 recombinantly expressed in HANA3A cells with RTP1S, G-protein αolf, M3 muscarinic acetylcholine receptor, pGL4-luciferase and pRL-TK-Renilla reporters; 4 h at 37° C.; Hill fit; n=3 in duplicate; FIG. 4B left
T2 sequence (Q8TCB6 1-318): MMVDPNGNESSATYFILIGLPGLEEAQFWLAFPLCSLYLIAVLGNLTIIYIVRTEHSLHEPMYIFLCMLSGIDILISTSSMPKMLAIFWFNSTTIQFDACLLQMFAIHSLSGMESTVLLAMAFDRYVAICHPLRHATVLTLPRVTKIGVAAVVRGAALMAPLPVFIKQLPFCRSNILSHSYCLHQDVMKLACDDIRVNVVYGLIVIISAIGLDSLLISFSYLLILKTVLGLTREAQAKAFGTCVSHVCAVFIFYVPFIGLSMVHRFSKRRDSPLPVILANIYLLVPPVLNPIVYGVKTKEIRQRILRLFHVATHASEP
Protocol: In order to identify suitable antagonist for TMA the protocol of Zhuang and Matsunami for measuring receptor activity with the Dual-Glo Luciferase Assay System (Promega) was adapted [see Nat. Protoc. 3(9), p. 1402-1413 (2008)]. HANA3A cells were maintained under standard conditions in DMEM supplemented with 10% FBS and 100 units/ml penicillin and streptomycin at 37° C. Cells (approximately 15,000 cells/well) were plated on poly-D-lysine-coated 96-well plates (NUNC) and transfected after 24 h with the FuGENE® HD (Promega) transfection reagent according to the manufacturer's protocol. […] Expression rates of Cre-luciferase were monitored by luminescent enzymatic reactivity. Thus, luminescence signals correlate with receptor activation. […]
For statistical analysis of Cre-luciferase assay data, two-tailed unpaired Student's t-test. […] Sensory data was analyzed using non-parametric statistical tests. The overall difference between the group thresholds was determined by a Kruskal-Wallis test, followed by a Dunn post-hoc test for the respective pairwise comparisons.
Another experiment was directed to figure out whether the Timberol® block is exclusively mediated by hTAAR5. […] Then the impact of Timberol® on MOR42-3- and hOR51E1-mediated responses to the respective agonists was tested with concentrations below and above the calculated EC50 values. […]

| SMILES | activation of hTAAR5 (hTAAR5) | olfactory detection threshold of TMA (panelists; TMA alone) | olfactory detection threshold of TMA (panelists; in the presence of Timberol (1% m/m)) | detection threshold in humans (humans) [ppm] | EC50 (hOR51E1) [µM] |
| --- | --- | --- | --- | --- | --- |
| CN(C)C [TMA, trimethylamine, reference compound] | specifically activated | 2.0×10^−7 % (m/m) | 1.0×10^−6 % (m/m) | 0.00047 | – |
| CN [methylamine] | – | – | – | 180 | – |
| CCCCCCCCC(=O)O [Nonanoic acid, nonanoic acid] | – | – | – | – | 103 ± 23.1 |
| CCN(C)C [DMEA, dimethylethylamine] | less efficacy and potency | – | – | – | – |
